System: Mycobacterium intracellulare subsp. chimaera
Assay: (§1) Inhibition of mycobacterial growth using the resazurin microtitre cell viability assay (REMA), compounds at final concentration of 20 µM (2% v/v DMSO). Hits were classed as compounds that inhibited bacterial growth by 70% or more compared to drug-free controls.
Assay type: functional, organism-based
Parameters: conc 20 uM
Conditions: NCTC13781

Substance | Survival
MMV688472 | 92.3%
MMV688474 | 100%
MMV688508 | -0.22%
MMV688509 | 110%
MMV688514 | 100%
MMV688543 | 97.2%
MMV688547 | 102%
MMV688548 | 101%
MMV688550 | 99%
MMV688552 | 103%
MMV688553 | 91.3%
MMV688554 | 102%
MMV688555 | 92.5%
MMV688557 | 101%
MMV688703 | 103%
MMV688704 | 98.7%
MMV688754 | 103%
MMV688755 | 107%
MMV688756 | 2.59%
MMV688761 | 108%
MMV688762 | 96.2%
MMV688763 | 99.1%
MMV688766 | 104%
MMV688768 | 93.9%
MMV688771 | 91.7%
MMV688773 | 94.7%
MMV688774 | 79.3%
MMV688775 | 1.46%

Substance | Survival
MMV688776 | 100%
MMV688793 | 101%
MMV688795 | 105%
MMV688796 | 93.4%
MMV688797 | 96.5%
MMV688798 | 95.2%
MMV688844 | 4.25%
MMV688845 | 1.95%
MMV688846 | 112%
MMV688852 | 103%
MMV688853 | 102%
MMV688854 | 111%
MMV688888 | 37.8%
MMV688889 | 89.4%
MMV688891 | 113%
MMV688921 | 109%
MMV688934 | 104%
MMV688936 | 98.9%
MMV688938 | 88.3%
MMV688939 | 95.4%
MMV688941 | 104%
MMV688942 | 98.6%
MMV688943 | 100%
MMV688955 | 94.2%
MMV688958 | 97.7%
MMV688978 | 105%
MMV688980 | 92%

System: Mycobacterium tuberculosis
Assay: as §1
Assay type: functional, organism-based
Parameters: conc 20 uM
Conditions: H37Rv

Substance | Survival
MMV688472 | 98%
MMV688474 | 94%
MMV688508 | 7.31%
MMV688509 | 91.6%
MMV688514 | 91.7%
MMV688543 | 89%
MMV688547 | 95.2%
MMV688548 | 91.6%
MMV688550 | 95.8%
MMV688552 | 81%
MMV688553 | 54%
MMV688554 | 76%
MMV688555 | 46.8%
MMV688557 | 95.7%
MMV688703 | 102%
MMV688704 | 92.8%
MMV688754 | 92.9%
MMV688755 | 7.68%
MMV688756 | 13.4%
MMV688761 | 108%
MMV688762 | 89%
MMV688763 | 21.8%
MMV688766 | 88.4%
MMV688768 | 87%
MMV688771 | 91.4%
MMV688773 | 82.8%
MMV688774 | 100%
MMV688775 | 4.71%

Substance | Survival
MMV688776 | 127%
MMV688793 | 89.7%
MMV688795 | 77.7%
MMV688796 | 99.3%
MMV688797 | 80.5%
MMV688798 | 102%
MMV688844 | 15.4%
MMV688845 | 6.47%
MMV688846 | 69.2%
MMV688852 | 107%
MMV688853 | 94.5%
MMV688854 | 111%
MMV688888 | 23.3%
MMV688889 | 58.9%
MMV688891 | 101%
MMV688921 | 110%
MMV688934 | 101%
MMV688936 | 82.6%
MMV688938 | 119%
MMV688939 | 48.9%
MMV688941 | 69.8%
MMV688942 | 85.1%
MMV688943 | 89.7%
MMV688955 | 103%
MMV688958 | 91.1%
MMV688978 | 5.27%
MMV688980 | 99.6%

System: Mycobacteroides abscessus
Assay: as §1
Assay type: functional, organism-based
Parameters: conc 20 uM
Conditions: ATCC19977

Substance | Survival
MMV688472 | 103%
MMV688474 | 106%
MMV688508 | 18.6%
MMV688509 | 119%
MMV688514 | 111%
MMV688543 | 101%
MMV688547 | 116%
MMV688548 | 115%
MMV688550 | 105%
MMV688552 | 107%
MMV688553 | 105%
MMV688554 | 115%
MMV688555 | 108%
MMV688557 | 101%
MMV688703 | 108%
MMV688704 | 106%
MMV688754 | 109%
MMV688755 | 111%
MMV688756 | 50%
MMV688761 | 113%
MMV688762 | 121%
MMV688763 | 122%
MMV688766 | 111%
MMV688768 | 109%
MMV688771 | 98.2%
MMV688773 | 122%
MMV688774 | 107%
MMV688775 | 15.1%

Substance | Survival
MMV688776 | 115%
MMV688793 | 114%
MMV688795 | 105%
MMV688796 | 103%
MMV688797 | 113%
MMV688798 | 103%
MMV688844 | 11.7%
MMV688845 | 24.1%
MMV688846 | 20.9%
MMV688852 | 115%
MMV688853 | 111%
MMV688854 | 114%
MMV688888 | 95.5%
MMV688889 | 105%
MMV688891 | 109%
MMV688921 | 110%
MMV688934 | 112%
MMV688936 | 106%
MMV688938 | 118%
MMV688939 | 97.6%
MMV688941 | 120%
MMV688942 | 112%
MMV688943 | 112%
MMV688955 | 89.9%
MMV688958 | 109%
MMV688978 | 106%
MMV688980 | 87.1%

Source: ChEMBL document CHEMBL4665541, “Search for new therapeutic options for the uncommon pathogen Mycobacterium chimaera: an open drug discovery approach” (Lancet Microbe, 2021)
